According to patent US11400130B2, “Inhibitors for proliferating cell nuclear antigen and uses” (Purdue Research Foundation, priority 2015, dated 2022):
Peptide text beside a SMILES is read from it. * marks the point of attachment. 5FAM = O=C1OC2(c3ccc(O)cc3Oc3cc(O)ccc32)c2ccc(C(=O)*)cc21; Ahx = NCCCCCC(=O)O

How the values were obtained:
PCNA [1] = target: T1, PCNA (Homo sapiens, UniProt P12004); assay: Fluorescence polarization competition assay (displacement of FAM-PL from His-tagged PCNA); type: binding; conditions: for Disruption of PCNA-PL peptide binding by individual fragments: individual peptoid fragments screened alone, dose response (FIG. 7); for Ki: calculated from IC50 using equation 5 (modified Cheng-Prusoff), 95% confidence interval around the mean; for IC50: disruption of PCNA / FAM-PL binding, values are 95% confidence interval around the mean
T1 construct: made in house; host or cells: E. coli BL21 (DE3)
T1 sequence (P12004 with tags, fused parts or gaps): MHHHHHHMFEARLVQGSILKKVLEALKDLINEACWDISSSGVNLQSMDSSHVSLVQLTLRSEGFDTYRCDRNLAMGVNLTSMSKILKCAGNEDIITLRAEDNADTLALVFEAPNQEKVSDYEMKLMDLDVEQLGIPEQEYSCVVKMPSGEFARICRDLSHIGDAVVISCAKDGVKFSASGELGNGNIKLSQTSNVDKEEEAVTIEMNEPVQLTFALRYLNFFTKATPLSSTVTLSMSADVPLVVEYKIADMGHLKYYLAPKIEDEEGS
Experimental: The inclusion of PCNA was included in the overall calculations of Ki values.
Anisotropy was converted to fractional occupancy, and IC50 values were determined for each peptoid by performing non-linear regression fits of each dose response curve using equation 4. Inhibition constants (Ki values) were calculated from the resultant IC50 values using equation 5 (Table 2).
Fluorescence Polarization Competition Assay. […] The plate was allowed to incubate at room temperature in the dark for 30 minutes prior to fluorescent measurement. […] Anisotropy values were converted to fractional occupancy using equation 2, and IC50 values were calculated by fitting the data to equation 4:
[formula] wherein n is the Hill slope.

PCNA [2] = target: T1, PCNA; assay: Fluorescence polarization binding assay (PCNA titration for affinity of FAM-PL); conditions: fixed FAM-PL (5 nM), two-fold increasing recombinant His-tagged PCNA, non-linear regression; read-out: Kd of FAM-PL peptide for PCNA
Experimental: After synthesis and purification, peptoids were screened in a fluorescence polarization (FP) assay to find ligands that disrupted the interaction between His-tagged PCNA and fluorescein-labeled Pogo Ligase peptide (FAM-PL) (Kontopidis, G., et al. Proc. Natl. Acad. Sci. U.S.A 2005, 102 (6), 1871-1876). In the design of the assay, conditions were adopted from Pedley et al., 2016, to improve the dynamic range between bound and unbound FAM-PL. While an acceptable Z-score was determined using the original 10 nM peptide and 100 nM PCNA (FIG. 4), an improved dynamic range was established by adjusting the ligand and receptor concentrations. […] Because more than 80% of the peptide was bound at a PCNA concentration of […] this protein-receptor concentration was selected for use in subsequent displacement assays. The inclusion of PCNA was included in the overall calculations of Ki values.
Fluorescence Polarization Binding Assay. […] Fluorescence polarization and resultant anisotropy were measured on a BioTek Synergy 4 Multi-Detection Microplate Reader using an excitation filter of 485 nm and an emission filter of 530 nm, each with a 20 nm band-pass. […]
FO values were analyzed using non-linear regression statistics in OriginPro 2015, representing them as the mean±standard error of the mean (Y), and plotting them as a function of the monomeric PCNA protein concentration (X). […]

Kd (PCNA [2]) [nM]	Ki (PCNA [1]) [nM]	IC50 (PCNA [1]) [nM]	SMILES	Disruption of PCNA-PL peptide binding by individual fragments (PCNA [1])
			CC(C)(C)[Si](C)(C)OCc1ccc(CN)cc1 [NBal]	none of the fragments showed any evidence of inhibition
107			CC[C@H](C)[C@H](NC(=O)[C@H](CCCCN)NC(=O)[C@H](CCCCN)NC(=O)[C@H](CCC(N)=O)NC(=O)[C@H](CC(C)C)NC(=O)[C@@H](NC(=O)[C@H](C)NC(=O)[C@H](CO)NC(=O)CCCCCNC(=O)c1ccc2c(c1)C(=O)OC21c2ccc(O)cc2Oc2cc(O)ccc21)C(C)C)C(=O)N[C@H](C(=O)N[C@@H](CC(=O)O)C(=O)N[C@@H](Cc1ccc(O)cc1)C(=O)N[C@@H](Cc1ccccc1)C(=O)N[C@@H](Cc1c[nH]cn1)C(=O)N1CCC[C@H]1C(=O)N[C@@H](CCCCN)C(=O)N[C@@H](CCCCN)C(N)=O)[C@@H](C)O [FAM-PL] ({5FAM-Ahx}-SAVLQKKITDYFHPKK-NH2)	
			CC(C)(C)OC(=O)c1ccc(CN)cc1 [NBza]	none of the fragments showed any evidence of inhibition
			NCCO [NEal, ethanol amine]	none of the fragments showed any evidence of inhibition
	114 ± 23.1	1180 ± 240	NCc1ccc(CN(CC(N)=O)C(=O)CN(CCO)C(=O)CN[C@H](CO)Cc2cc(I)c(Oc3ccc(O)cc3)c(I)c2)cc1 [T2AA-NEal-NMma]	
	1120 ± 245	11700 ± 2550	NCc1ccc(CNCC(=O)N(CC(=O)N(CC(N)=O)Cc2ccc(CO)cc2)Cc2ccc3c(c2)OCO3)cc1 [NMma-NPip-NBal]	
	1240 ± 190	12900 ± 1970	NCCCCNCC(=O)N(CC(=O)N(CC(N)=O)Cc1ccc(CN)cc1)Cc1ccc2c(c1)OCO2 [NLys-NPip-NMma]	
